Data from paper PMC6442460 (Journal of chemical information and modeling, 2018).
Like-named read-outs stand apart in the source and are kept apart here.

Experiments:
[1] = target: T1, ECL (Erythrina cristagalli lectin) (Erythrina crista-galli, UniProt P83410); details: cited from earlier work
T1 sequence (P83410 1-239): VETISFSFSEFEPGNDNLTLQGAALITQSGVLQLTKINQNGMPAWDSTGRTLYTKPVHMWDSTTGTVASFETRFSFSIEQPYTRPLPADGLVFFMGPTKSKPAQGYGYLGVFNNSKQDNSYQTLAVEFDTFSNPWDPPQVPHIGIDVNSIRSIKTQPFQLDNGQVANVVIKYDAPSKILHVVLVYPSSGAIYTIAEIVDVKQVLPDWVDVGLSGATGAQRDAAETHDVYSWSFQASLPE

[2] = target: T1, ECL (Erythrina cristagalli lectin); details: cited from earlier work; remark: listed apart in the source
[3] = target: T1, ECL (Erythrina cristagalli lectin); assay: Protein BLI inhibition; format: binding; details: for ΔG: binding free energy from BLI KD, standard deviations in parentheses; for affinity for ECL (result in words): BLI
[4] = target: T1, ECL (Erythrina cristagalli lectin); details: cited from earlier work; remark: listed apart in the source
[5] = target: T1, ECL (Erythrina cristagalli lectin); assay: Isothermal titration calorimetry; format: binding; details: relative to 1

Row | Compound | inhibitory power relative to D-Gal (result in words) [1] | ΔG [3] | binding in glycan array screening of ECL [4] | other results
1 | O=C[C@@H](O)[C@H](O)[C@H](O)CO [D-Ara] | poor inhibitors |  |  | 
2 | OC[C@H]1OC(O)[C@H](O)[C@@H](O)[C@H]1O (stereo partly drawn) [D-Gal, reference compound] |  |  |  | reference ΔG ([2]; ITC at 25 °C): –4.0 (<0.1) kcal/mol
3 | CC(=O)N[C@H]1C(O)O[C@H](CO)[C@@H](O)[C@@H]1O (stereo partly drawn) [D-GlcNAc] | poor inhibitors |  |  | 
4 | OC[C@H]1OC(O)[C@H](O)[C@@H](O)[C@@H]1O (stereo partly drawn) [D-Glc] | poor inhibitors |  |  | 
5 | C[C@@H]1OC(O)[C@@H](O)[C@H](O)[C@@H]1O (stereo partly drawn) [L-Fuc] | poor inhibitors |  |  | 
6 | OC[C@H]1O[C@@H](O[C@H]2[C@H](O)[C@@H](O)[C@H](O)O[C@@H]2CO)[C@H](O)[C@@H](O)[C@H]1O [ligand 1, lactose] |  | –4.83 (0.04) kcal/mol | nonbinders | reference ΔG ([2]; ITC at 25 °C): –4.8 (<0.1) kcal/mol; reference ΔG ([2]; ITC at 27 °C): –4.9 (0.2) kcal/mol
7 | OC[C@H]1O[C@@H](O[C@H]2[C@H](O)[C@H](O)C(O)O[C@@H]2CO)[C@H](O)[C@@H](O)[C@H]1O (stereo partly drawn) [ligand 2, epi-lactose] |  | –5.08 (0.02) kcal/mol |  | 
8 | CC(=O)N[C@H]1C(O)O[C@H](CO)[C@@H](O[C@@H]2O[C@H](CO)[C@H](O)[C@H](O)[C@H]2O)[C@@H]1O (stereo partly shown) [ligand 3, N-acetyllactosamine] |  | –5.66 (0.04) kcal/mol | binders | fold higher affinity of ECL [5]: about 3 fold; reference ΔG ([2]; ITC at 27 °C): –5.5 (0.1) kcal/mol
9 | CC(=O)N[C@H]1[C@H](O[C@H]2[C@H](O)[C@@H](NC(C)=O)C(O)O[C@@H]2CO)O[C@H](CO)[C@H](O)[C@@H]1O (stereo partly shown) [ligand 4, N,N-diacetyllactosamine] |  |  | binders | 
10 | C[C@@H]1O[C@@H](O[C@H]2[C@H](O[C@H]3[C@H](O)[C@@H](O)C(O)O[C@@H]3CO)O[C@H](CO)[C@H](O)[C@@H]2O)[C@@H](O)[C@H](O)[C@@H]1O (stereo partly shown) [ligand 5, fucosylated lactose] |  | –5.04 (0.06) kcal/mol | nonbinders | reference ΔG ([2]; ITC at 25 °C): –4.8 (<0.1) kcal/mol
11 | CC(=O)N[C@H]1C(O)O[C@H](CO)[C@@H](O[C@@H]2O[C@H](CO)[C@H](O)[C@H](O)[C@H]2O[C@@H]2O[C@@H](C)[C@@H](O)[C@@H](O)[C@@H]2O)[C@@H]1O (stereo partly shown) [ligand 6, fucosylated N-acetyllactosamine] |  | –6.21 (0.14) kcal/mol | binders | 
12 | O=C[C@H](O)[C@@H](O)[C@H](O[C@@H]1O[C@H](CO)[C@@H](O)[C@H](O)[C@H]1O)[C@H](O)CO [ligand 7, cellobiose] |  |  |  | affinity for ECL (result in words) [3]: Neither cellobiose (Glcβ1–4Glcβ, 7) nor maltose (Glcα1–4Glcβ, 8) shows any measurable affinity
13 | OC[C@H]1O[C@H](O[C@H]2[C@H](O)[C@@H](O)[C@H](O)O[C@@H]2CO)[C@H](O)[C@@H](O)[C@@H]1O [ligand 8, maltose] |  |  |  | affinity for ECL (result in words) [3]: Neither cellobiose (Glcβ1–4Glcβ, 7) nor maltose (Glcα1–4Glcβ, 8) shows any measurable affinity
